This passage reports EC50, Kd and pKDapp results from paper PMC11876601 (Molecular Systems Biology, 2025).

The test system of one experiment is INCENP. Set-up: method as in Klaeger et al. (2017). Particulars: lysate 4 cell line mix (Colo205, K-562, MV-4-11, and SK-N-BE(2)), Kinobeads y, ref Klaeger et al. (2017); cited from earlier work.
Another experiment has as its system CDK2. Set-up: method as in Klaeger et al. (2017). Particulars: CDK2, 4 cell line mix lysate, Kinobeads y, ref Klaeger et al. (2017); cited from earlier work.
The target of a further experiment is TANK. As to conditions: 5 cell line mix lysate, Kinobeads ε, ref Reinecke et al. (2023), cited from earlier work.
In the next experiment the target is CAMK2B. Set-up: method as in Reinecke et al. (2023). Particulars: 5 cell line mix lysate, Kinobeads ε, ref Reinecke et al. (2023), cited from earlier work.
In a further experiment the test system is MARK2. Particulars: MARK2, 5 cell line mix lysate, Kinobeads ε, ref Reinecke et al. (2023), cited from earlier work.
In the next experiment the test system is RPS6KA1. Set-up: method as in Reinecke et al. (2023). Particulars: RPS6KA1, 5 cell line mix lysate, Kinobeads ε, ref Reinecke et al. (2023), cited from earlier work.
Another experiment deals with HCK. Further details: method as in Reinecke et al. (2023). Particulars: 5 cell line mix lysate, Kinobeads ε, ref Reinecke et al. (2023), cited from earlier work.
The subject of another experiment is MAP3K5. Further details: method as in Reinecke et al. (2023). As to conditions: MAP3K5, 5 cell line mix lysate, Kinobeads ε, ref Reinecke et al. (2023), cited from earlier work.
In a further experiment the target is LCK. Set-up: method as in Reinecke et al. (2023). As to conditions: 5 cell line mix lysate, Kinobeads ε, ref Reinecke et al. (2023), cited from earlier work.
The subject of a further experiment is MAPK9. Set-up: method as in Reinecke et al. (2023). Particulars: MAPK9, 5 cell line mix lysate, Kinobeads ε, ref Reinecke et al. (2023), cited from earlier work.
The next experiment has as its system TAOK2. Further details: method as in Reinecke et al. (2023). Particulars: TAOK2, 5 cell line mix lysate, Kinobeads ε, ref Reinecke et al. (2023), cited from earlier work.
The next experiment concerns the target PIK3C2A (Homo sapiens, UniProt O00443). The experiment can be described thus: biochemical. As to the method:
(§1) This was followed by incubation with Kinobeads ε (17.5 µl of settled beads) for 30 min at 4 °C to enrich kinases. […] Enriched proteins were reduced with 50 mM DTT in 8 M urea, 40 mM Tris-HCl, pH 7.4 for 30 min at room temperature, and alkylated with 55 mM chloroacetamide. After reducing the urea concentration to 1–2 M, proteins were digested with trypsin at 37 °C for 16 h. Subsequently, eluted peptides were desalted using SepPak tC18 µElution plates (Waters), freeze-dried by vacuum centrifugation, and stored at −20 °C.
(§2) For LC-MS/MS, dried peptides were reconstituted in 0.1% formic acid and analyzed on a Dionex Ultimate3000 nano HPLC (Thermo Scientific) coupled to an Orbitrap Fusion Tribrid mass spectrometer (Thermo Scientific), which was run in data-dependent mode. […]
(§3) Oxidized methionine and N-terminal acetylation were set as variable modification, and cysteine carbamidomethylation was set as fixed modification. Label-free quantification (LFQ) and match-between-runs were enabled. […]
(§4) Proteins were filtered by potential contaminants, reversed hits and proteins identified only by site. Residual binding of proteins was calculated from LFQ intensities as the ratio between drug doses and vehicle. […] Only kinases quantified with at least 4 unique peptides in the vehicle experiment were considered. […]

Experiment [1] has as its target several subunits of CSNK2. As to the kind of experiment: Kinobeads competition pulldown in AsPC-1 lysate. It is filed as binding, human. As to conditions: read-out: KDapp. As to the method:
as §1, §2, §3, §4

Sequence of PIK3C2A (O00443 whole entry): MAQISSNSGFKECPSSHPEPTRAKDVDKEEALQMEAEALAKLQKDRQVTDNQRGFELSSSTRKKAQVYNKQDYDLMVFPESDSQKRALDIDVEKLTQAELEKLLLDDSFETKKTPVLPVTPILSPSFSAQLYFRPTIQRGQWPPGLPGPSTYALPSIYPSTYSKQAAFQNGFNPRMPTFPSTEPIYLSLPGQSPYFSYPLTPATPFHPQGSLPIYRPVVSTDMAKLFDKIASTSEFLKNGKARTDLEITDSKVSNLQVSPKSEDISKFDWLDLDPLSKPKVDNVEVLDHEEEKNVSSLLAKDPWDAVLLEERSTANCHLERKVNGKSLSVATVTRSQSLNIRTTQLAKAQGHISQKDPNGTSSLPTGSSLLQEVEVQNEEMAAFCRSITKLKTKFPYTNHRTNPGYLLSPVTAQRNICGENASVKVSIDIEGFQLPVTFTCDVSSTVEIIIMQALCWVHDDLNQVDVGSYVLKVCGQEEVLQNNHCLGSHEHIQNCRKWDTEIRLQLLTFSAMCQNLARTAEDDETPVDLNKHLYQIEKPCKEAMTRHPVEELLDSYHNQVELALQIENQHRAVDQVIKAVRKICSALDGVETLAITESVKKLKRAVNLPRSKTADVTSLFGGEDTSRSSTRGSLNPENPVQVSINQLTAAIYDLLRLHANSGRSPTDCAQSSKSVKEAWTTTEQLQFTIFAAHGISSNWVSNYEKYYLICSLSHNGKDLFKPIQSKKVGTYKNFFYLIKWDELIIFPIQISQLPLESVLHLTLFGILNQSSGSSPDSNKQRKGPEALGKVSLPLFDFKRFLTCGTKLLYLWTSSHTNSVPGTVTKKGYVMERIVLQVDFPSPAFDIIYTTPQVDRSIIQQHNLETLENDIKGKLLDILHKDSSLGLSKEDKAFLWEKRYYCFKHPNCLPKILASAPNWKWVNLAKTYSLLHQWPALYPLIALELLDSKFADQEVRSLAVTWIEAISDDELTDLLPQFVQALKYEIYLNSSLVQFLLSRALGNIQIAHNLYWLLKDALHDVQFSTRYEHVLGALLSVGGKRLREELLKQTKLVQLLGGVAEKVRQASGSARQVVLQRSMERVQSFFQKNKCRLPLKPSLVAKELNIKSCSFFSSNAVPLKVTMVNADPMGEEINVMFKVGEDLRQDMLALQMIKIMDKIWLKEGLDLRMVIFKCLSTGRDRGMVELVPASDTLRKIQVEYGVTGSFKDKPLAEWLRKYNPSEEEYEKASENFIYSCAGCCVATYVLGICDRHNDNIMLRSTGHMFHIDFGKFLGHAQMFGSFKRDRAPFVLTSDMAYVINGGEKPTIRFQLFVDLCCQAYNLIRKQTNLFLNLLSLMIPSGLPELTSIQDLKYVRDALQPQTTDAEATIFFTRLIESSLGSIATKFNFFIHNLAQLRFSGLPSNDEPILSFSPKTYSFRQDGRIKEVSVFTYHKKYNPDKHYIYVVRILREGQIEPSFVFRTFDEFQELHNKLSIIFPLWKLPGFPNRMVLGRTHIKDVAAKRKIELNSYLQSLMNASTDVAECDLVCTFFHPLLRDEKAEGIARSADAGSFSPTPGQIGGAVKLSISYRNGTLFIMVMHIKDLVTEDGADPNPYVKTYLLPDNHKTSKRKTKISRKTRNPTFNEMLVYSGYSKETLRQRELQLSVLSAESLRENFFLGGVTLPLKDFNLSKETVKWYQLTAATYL

By EC50 is commonly meant the concentration that produces a half-maximal response. As for `C[C@]12O[C@H](C[C@]1(O)CO)n1c3ccccc3c3c4c(c5c6ccccc6n2c5c31)CNC4=O` [Lestaurtinib], the figures for the concentration for a half-maximal effect (EC50) with INCENP and with CDK2 were 520 nM and […], respectively.

Consider `COc1cc(N2CCC(N3CCN(C)CC3)CC2)ccc1Nc1ncc(Cl)c(Nc2ccccc2P(C)(C)=O)n1` [Brigatinib], for which the Kd was 684 nM on TANK (read-out: KDapp); 48.4 nM on CAMK2B (read-out: KDapp); 186 nM at MARK2 (read-out: KDapp); 283 nM on RPS6KA1 (read-out: KDapp); 776 nM at HCK (read-out: KDapp); 776 nM at MAP3K5 (read-out: KDapp). In addition, the Kd on LCK (read-out: KDapp) is 963 nM; at MAPK9 (read-out: KDapp), 1480 nM; on TAOK2 (read-out: KDapp), 1830 nM. For the same molecule, the EC50 was 1070 nM with TANK; 323 nM in the experiment with CAMK2B; 247 nM with MARK2; 376 nM with RPS6KA1; 1500 nM with HCK; 970 nM with MAP3K5. For the same molecule, the figures for the concentration for a half-maximal effect (EC50) with LCK, with MAPK9 and in the experiment with TAOK2 were 2190 nM, 2110 nM and 3110 nM, respectively. For the same molecule, the pKDapp on TANK was 6.17; on CAMK2B it was 7.32; at MARK2 it was 6.73; at RPS6KA1 it was 6.55; on HCK, 6.11; on MAP3K5, 6.11. The pKDapp on LCK is given as 6.02; at MAPK9, 5.83; on TAOK2 it was 5.74.

`C[C@@H]1COCCN1c1cc(-c2ccnn2C)c2ccnc(-c3ccn[nH]3)c2n1` [Elimusertib] gave an EC50 on PIK3C2A of 936 nM. At PIK3C2A (KDapp, AsPC-1 lysate), this molecule showed a Kd of 426 nM.

As to `Nc1nn2cc(F)cnc2c1C(=O)Nc1cncc(F)c1N1CCC(C(=O)N2CCN(C3COC3)CC2)CC1` [Gartisertib], the Kd in experiment [1] lay within 10 to 20 nM.
